How the values were obtained:
[1] = system: Candida albicans-Strang B311; test: checkerboard in vitro synergy test (microtiter plates, growth inhibition endpoints, isobolograms); assay type: cell-based; details: combination with Nikkomycin versus azole alone
From the text: Um die Eignung von Nikkomycinen und Azolen hinsichtlich der synergistischen Wirkung zu testen, wurde ein schachbrettartiger in vitro-Versuch mit der Hefe Candida albicans durchgeführt.
Ein Candida albicans-Strang B311 wurde über Nacht in einer Glucose-Hefeextrakt-Kultur gezüchtet, gewaschen und auf die gewünschte Dichte gebracht.
Die Tests wurden in 96-Loch-Mikrotiterplatten durchgeführt, wobei man eine Hefestickstoffkultur mit Dextrose und Asparagin als Wachstumsmedium verwendete. Die Testmaterialien wurden gelöst, serienmässig verdünnt und dann in die geeigneten Löcher der Mikrotiterplatten überführt, so dass die Endkonzentrationen von 0,02 bis 1 mMol für die Nikkomycine, und 0,06 bis 64 µg für die Azole betrugen. Alle Löcher wurden mit 10.000 Organismen/ml (Endkonzentration) geimpft,und die Platten bei Raumtemperatur 48 Stunden lang inkubiert. Die Platten wurden dann ausgewertet,und die Wachstumsrate für jedes Loch festgestellt. Die Endpunkte wurden für jede Reihe als niedrigste Konzentration, die eine vollständige Inhibierung des Wachstums zeigte, bestimmt. Die Daten wurden als Isobologramme geplottet, die die Endpunkte für die einzelnen Verbindungen als auch die Endpunkte für die verschiedenen Kombinationen zeigten. […]

C. albicans = test: septic murine candidosis model, oral therapy; assay type: in vivo, CFW₁-Mäuse; details: for Zahl der überlebenden Tiere in den folgenden Tagen nach der Infektion: 2 x 100 mg/kg oral on the day of infection, 10 animals at day 0
Protocol: Wirksamkeit von Nikkomycin X und Z in dem Tiermodell von Murine candidosis.
Gezüchtete CFW₁-Mäuse wurden intravenös mit 6 x 10⁵ cfu von C. albicans infiziert. Die orale Therapie wurde gleichzeitig mit der Infektion gestartet. Die Mittel wurden einzeln mit Nährnadeln in Volumina von 0,5 ml ausgegeben.
In dem Modell der septischen Murine candidosis, das häufig zum Testen von Azolen verwendet wird, wird die Behandlung der Tiere gleichzeitig mit der Infektion gestartet, indem man 2 x 100 mg/kg beider Zubereitungen am Tag der Infektion verabreichte. Diese Verabreichungsweise erzeugt nur eine leichte Verzögerung in der lethalen Kinetik (Tabelle 1).

Row | Structure (SMILES) | Reduktion des Endpunktes für die Kombination hinsichtlich des Azolendpunktes [1] | Zahl der überlebenden Tiere in den folgenden Tagen nach der Infektion (C. albicans; day 3 after infection) | Zahl der überlebenden Tiere in den folgenden Tagen nach der Infektion (C. albicans; day 6 after infection) | Wirksamkeit (C. albicans; 14-day treatment, daily dose 2 x 10 mg/kg, Fig. 2) | Wirksamkeit (C. albicans; treatment period 3 days, 100 mg/kg, Fig. 1)
1 | Clc1ccccc1C(c1ccccc1)(c1ccccc1)n1ccnc1 [Clotrimazol] | ≥ 50 -fach | – | – | – | –
2 | C[C@@H]([C@H](N)C(=O)N[C@H](C(=O)O)[C@H]1O[C@@H](n2cc(C=O)[nH]c2=O)[C@H](O)[C@@H]1O)[C@H](O)c1ccc(O)cn1 [Nikkomycin X] | – | 10 | 3 | – | –
3 | C[C@@H]([C@H](N)C(=O)N[C@H](C(=O)O)[C@H]1O[C@@H](n2ccc(=O)[nH]c2=O)[C@H](O)[C@@H]1O)[C@H](O)c1ccc(O)cn1 [Nikkomycin Z] | – | 6 | 5 | wirksamer als 2 x 100 mg/kg | vergleichbar zu der von 25 mg/kg Ketoconazol oder Vibunazol

— patent EP0315861A1, “Antimycotic compositions of a nikkomycin compound and an antimycotic azole” (BAYER AG, priority 1987, dated 1989)
